Consider 16 compounds from publication PMC12306736 (PLOS Genetics, 2025).

pIC50: −log10 of the molar value. Read-outs that look alike come from different tables or passages of the source. Some results are limits rather than exact numbers.

Data set [1] concerns THP-1 cells. The settings on record: human.
The subject of data set [2] is B. abortus. The data set can be described thus: microbe, parasite or virus in culture. It counts as cell-based. The settings on record: Brucella abortus, THP-1, 48 h, read-out: IC50, intracellular B. abortus in THP-1 cells.
Data set [3] deals with B. ovis. Format: cell-based, Brucella ovis.
Data set [4] deals with B. ovis. It counts as cell-based, Brucella ovis. This is another data set of the same source.
Data set [5] deals with B. ovis. As to the kind of experiment: microbe, parasite or virus in culture. Format: cell-based, Brucella ovis. The note with it: for pIC50: Brucella ovis.
Data set [6] concerns B. ovis. As to the kind of experiment: microbe, parasite or virus in culture. The settings on record: for pIC50: Brucella ovis. Format: cell-based, Brucella ovis. The source holds these as a separate data set.
In data set [7] the test system is B. abortus. Format: cell-based, Brucella abortus.
Data set [8] concerns B. abortus. It counts as cell-based, Brucella abortus. The source holds these as a separate data set.
For data set [9], the system named is B. abortus. It counts as cell-based, Brucella abortus. This is another data set of the same source.
The subject of data set [10] is B. ovis. Format: cell-based, Brucella ovis. This is another data set of the same source.
Data set [11] relates to B. abortus. Format: cell-based.
The subject of data set [12] is B. ovis. Format: cell-based, Brucella ovis. This is another data set of the same source.
Data set [13] relates to THP-1 macrophage-like cells. Format: cell-based, human.
[14] abbreviates: 48 h, read-out: Axenic B. ovis IC50 (Fig 1B).
[15] abbreviates: THP-1, 48 h, read-out: IC50 for inhibiting intracellular growth of B. ovis.
[16] abbreviates: THP-1, read-out: Intracellular IC50.

Usually CC50 stands for the concentration that lowers cell viability or growth by half. Read a high CC50 as lower toxicity to the cells. The compound `O=C1CCc2ccc(OCCCCN3CCN(c4cccc(Cl)c4Cl)CC3)cc2N1` [Aripiprazole] returned a CC50 in data set [1] of 12 µM.
Broadly, the pIC50 is the negative decadic logarithm of the IC50, by convention in mol/L. As for `COCCOC(=O)C1=C(C)NC(C)=C(C(=O)OC/C=C/c2ccccc2)C1c1cccc([N+](=O)[O-])c1` (stereo not drawn) [Cilnidipine], the pIC50 in data set [2] was 4.87; in data set [5] (setting [14]), 5.29; in data set [5] (48 h, read-out: Axenic IC50, B. ovis) it was approximately 5.30; in [5] (read-out: Axenic IC50), 5.30; in data set [6] (setting [15]), 5.60; in [6] (setting [16]) it was 5.70. Besides, in [3], the “Axenic inhibition in high-throughput screen” value is listed as less than 35%. The same compound yielded a CC50 in data set [1] of more than 50 µM. Besides, in data set [1], the “THP-1 host cell viability” value was “does not affect THP-1 host cell viability”. In addition, in [4], the “Growth of WT B. ovis in liquid culture” value is “failed to grow over 72 h”. Moreover, the “Concentrations giving complete growth inhibition of axenic B. ovis” value in [5] is not below 10 µM. For the same compound, the “Outcome of validation assays” value in [6] is “inhibitors of intracellular replication that were not toxic to host cells”. Moreover, in [7], the “Sensitivity of WT B. abortus in axenic conditions” value is on record as “insensitive”. Moreover, the “Sensitivity of ∆bepE B. abortus in axenic conditions” value in data set [7] is “insensitive”. Also, in [8], the “Effect of bepE disruption on B. abortus sensitivity on solid media” value (shortened to “Effect of bepE disruption”) was “did not affect sensitivity”. Moreover, the “Effect of bepE deletion on B. abortus sensitivity in THP-1 cells” value in data set [9] is given as “increase sensitivity”.
In the case of `CC(=O)SCC(Cc1ccccc1)C(=O)NCC(=O)OCc1ccccc1` (stereo not drawn) [Racecadotril], the CC50 in data set [1] was more than 50 µM. For the same compound, the pIC50 in data set [5] (read-out: Axenic IC50) and in data set [6] (setting [16]) was less than 4.30 in each case.
For the compound `COc1ccc(CN2CCN(C(c3ccc(F)cc3)c3ccc(F)cc3)CC2)c(OC)c1OC` [Lomerizine], the half-maximal cytotoxic concentration (CC50) in data set [1] was 50 µM. The negative logarithm of the IC50 (pIC50) was less than 4.30 in data set [5] (read-out: Axenic IC50) and 5.05 in [6] (setting [16]). In addition, the “Outcome of validation assays” value in data set [6] is recorded as “inhibitors of intracellular replication that were not toxic to host cells”.
Consider `COC(=O)C1=C(C)NC(C)=C(C(=O)OC)C1c1ccccc1[N+](=O)[O-]` [nifedipine], for which, in data set [10], the “Hit status in B. ovis intracellular screen” value is reported as “neither compound emerged as a hit”.
As for `CCCCN(CCCC)CCC(O)c1cc2c(Cl)cc(Cl)cc2c2cc(C(F)(F)F)ccc12` (stereo not drawn) [Halofantrine], the half-maximal cytotoxic concentration (CC50) in data set [1] is more than 50 µM. The pIC50 was 4.96 in data set [5] (read-out: Axenic IC50) and less than 4.30 in data set [6] (setting [16]).
Take `CC1(C)S[C@@H]2[C@H](NC(=O)Cc3ccccc3)C(=O)N2[C@H]1C(=O)O` [Penicillin G]: the “Differential growth of B. abortus WT and ΔbepE in Biolog phenotype microarray” value in [11] is listed as “markedly inhibiting ΔbepE but not WT growth”. The “Increase in susceptibility of B. abortus on deletion of bepE (spot-titration on agar)” value in data set [8] is given as “approximately five”.
Consider `COc1ccc(CCN(C)CCCC(C#N)(c2ccc(OC)c(OC)c2)C(C)C)cc1OC` (stereo not drawn) [verapamil], for which the “Hit status in B. ovis intracellular screen” value in data set [10] is on record as “neither compound emerged as a hit”.
As for `CCCCCCCCCCCCOS(=O)(=O)[O-].[Na+]` [SDS, sodium dodecyl sulfate], the “Sensitivity of wild-type B. ovis on TSA blood plates” value (“Sensitivity of wild-type B. ovis” for short) in data set [12] is on record as “highly sensitive”.
In data set [1], `OCCN(CCO)c1nc(N2CCCCC2)c2nc(N(CCO)CCO)nc(N3CCCCC3)c2n1` [Dipyridamole] came in with a CC50 of 41 µM. For the same compound, the negative-log IC50 (pIC50) in data set [5] (read-out: Axenic IC50) and in data set [6] (setting [16]) was less than 4.30 each time.
As for `C[C@H](CCC(=O)NCCC[N+](C)(C)CCCS(=O)(=O)[O-])[C@H]1CC[C@H]2[C@@H]3[C@H](O)C[C@@H]4C[C@H](O)CC[C@]4(C)[C@H]3C[C@H](O)[C@]12C` [CHAPS], the “Effect of bepE disruption” value in data set [8] is given as “did not affect sensitivity”. Moreover, in [12], the “Sensitivity of wild-type B. ovis” value is given as “highly sensitive”.
As for `COC(=O)C1=C(C)NC(C)=C(C(=O)OCCN(C)Cc2ccccc2)C1c1cccc([N+](=O)[O-])c1` (stereo not drawn) [Nicardipine], in data set [13], the “Increase in intracellular calcium level” value is on record as 20–40%, the “Increase in intracellular manganese level” value is 20–40% and the “Other metal levels in THP-1 cells” value is given as “Most metal levels remained unchanged”. For the same compound, the pIC50 in [2] is 5.36. In [1], half-maximal cytotoxicity (CC50) was put at 49 µM and the “THP-1 host cell viability” value is given as “does not affect THP-1 host cell viability”. The “Growth of WT B. ovis in liquid culture” value in data set [4] is reported as “modest lag”. Besides, the “Effect on terminal optical density of axenic B. ovis” value in [5] is “no effect on the terminal optical density at any concentration tested”. Besides, in data set [5] (setting [14]), the pIC50 was less than 4.60. For the same compound, in data set [5] (read-out: Axenic IC50), the negative logarithm of the IC50 (pIC50) is less than 4.30. In addition, the “Outcome of validation assays” value in data set [6] is “inhibitors of intracellular replication that were not toxic to host cells”. In addition, in [6] (setting [15]), the pIC50 was 5.64. Moreover, the pIC50 in [6] (setting [16]) is 5.70. For the same compound, in data set [7], the “Sensitivity of WT B. abortus in axenic conditions” value is on record as “insensitive” and the “Sensitivity of ∆bepE B. abortus in axenic conditions” value is reported as “insensitive”. The “Effect of bepE disruption” value in [8] is listed as “did not affect sensitivity”. In [9], the “Effect of bepE deletion on B. abortus sensitivity in THP-1 cells” value was “did not alter sensitivity” and the “Wild-type B. abortus CFUs recovered from treated THP-1 cells compared to untreated controls” value is listed as “significantly fewer”.
Turning to `N[C@@H]1C[C@H]1c1ccccc1` (racemic) [Tranylcypromine], the 50% cytotoxic concentration (CC50) in data set [1] was more than 50 µM. Moreover, the pIC50 in [5] (read-out: Axenic IC50) and in data set [6] (setting [16]) was less than 4.30 in each case.
Consider `CC1(C)S[C@@H]2[C@H](NC(=O)C(C(=O)O)c3ccccc3)C(=O)N2[C@H]1C(=O)O` (stereo partly drawn) [carbenicillin], for which the “Sensitivity of wild-type B. ovis” value in data set [12] is recorded as “moderately sensitive”.
As for `CCOc1ccc(NC(C)=O)cc1` [Phenacetin], in data set [1], the CC50 is more than 50 µM. The pIC50 in data set [5] (read-out: Axenic IC50) and in data set [6] (setting [16]) was less than 4.30 throughout.
In data set [1], `c1ccc(-c2ccc(C(c3ccccc3)n3ccnc3)cc2)cc1` (stereo not drawn) [Bifonazole] came in with a half-maximal cytotoxic concentration (CC50) of more than 50 µM. For the same compound, the negative logarithm of the IC50 (pIC50) in data set [5] (read-out: Axenic IC50) was 5.40; in [6] (setting [16]) it was 4.85. Besides, in [6], the “Outcome of validation assays” value is “inhibitors of intracellular replication that were not toxic to host cells”.
